Counter-ions that a name gives are not always drawn.
Target: T1, α7-subtype of nicotinic receptors (Rattus norvegicus, UniProt Q05941)
T1 construct: Cerebral cortices from male Wistar rats (150-250 g) are homogenised; from tissue; host or cells: rat cerebral cortex membrane homogenate
Experiment: In vitro inhibition of 3H-α-bungarotoxine binding in rat brain
Details: rat cerebral cortex homogenate; 2 nM 3H-α-bungarotoxine; 2 hours at 37° C.

T1 sequence (Q05941 23-502): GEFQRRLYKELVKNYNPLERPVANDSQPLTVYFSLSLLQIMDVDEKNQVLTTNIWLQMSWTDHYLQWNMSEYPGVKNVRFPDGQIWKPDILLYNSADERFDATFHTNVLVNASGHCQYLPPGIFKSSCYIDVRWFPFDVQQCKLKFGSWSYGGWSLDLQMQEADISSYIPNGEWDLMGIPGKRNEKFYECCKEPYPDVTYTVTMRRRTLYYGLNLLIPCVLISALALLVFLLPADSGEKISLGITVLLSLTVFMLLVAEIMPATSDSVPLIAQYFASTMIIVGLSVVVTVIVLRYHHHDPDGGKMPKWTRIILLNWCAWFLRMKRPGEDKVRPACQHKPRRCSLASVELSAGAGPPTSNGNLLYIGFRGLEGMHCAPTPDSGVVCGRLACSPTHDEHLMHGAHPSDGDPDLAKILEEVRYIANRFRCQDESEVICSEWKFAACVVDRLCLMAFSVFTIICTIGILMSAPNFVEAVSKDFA

## c1nc(OC2CN3CCC2CC3)sc1-c1cnc(OC2CN3CCC2CC3)s1 (racemic) [Compound A1, 2,2′-Bis-((±)-1-aza-bicyclo[2.2.2]oct-3-yloxy)-[5,5′]-bithiazolyl fumaric acid salt]
  IC50: 200 nM

— patent publication US7674899B2, “Dimeric azacyclic compounds and their use” (Neurosearch A/S, priority 2004, dated 2010)
